Experiments:
IL6 gene = assay: RT-qPCR IL6 gene expression in HCT116; format: cell-based, Human; conditions: HCT116, 100 μM, 24 h, vs untreated control
Method: (§1) In each of the four compound groups: MJ1–MJ5, MJ6–MJ10, MJ11–MJ15, and MJ16–MJ20, one compound was selected based on the best IC50 value and a distinctive gene expression profile (BCL2, MDM2, AIFM2, IL6, IL8).
(§2) Gene expression studies used quantitative RT-qPCR to assess the effect of the tested quinobenzothiazines (MJ1–MJ20) on the expression of apoptosis-related genes (BCL2, AIFM2, MDM2) and pro-inflammatory cytokines (IL6, IL8) (Table 4).
(§3) BEAS-2B and HCT116 cells were seeded in 6-well plates at 2 × 10^5 cells per well and cultured in RPMI-1640 (BEAS-2B) or DMEM (HCT116) medium supplemented with 10% FBS and 1% penicillin/streptomycin at 37 °C, 5% CO2 and 95% humidity. After 24 h of incubation, the tested compounds were added at a concentration of 100 µM. After 24 h, the medium was removed from the cells, washed with PBS solution, 0.5 mL of trypsin was added per well and after 5 min it was neutralized with medium. […]
(§4) Total RNA was isolated from cells using the A&A Biotechnology Total RNA Mini kit according to the manufacturer’s protocol. RNA quality and quantity were assessed using a NanoDrop 2000 spectrophotometer at 260/280 nm. […]
(§5) The results were analyzed using the R = 2^−ΔΔCt method, which allows for determining the relative level of gene expression (R) compared to the control. […]

HCT116 cells = assay: DAPI staining for nuclear morphology and apoptosis, HCT116; format: cell-based, Human; conditions: HCT116, 100 μM, 24 h
Method: (§6) The BEAS-2B, NHDF, HCT116, MCF7, SH-SY5Y, A549 cell lines studied were cultured in DMEM medium supplemented with 10% fetal bovine serum (FBS) and 1% penicillin/streptomycin solution. Cells were seeded at 1 × 10^4 per well in 96-well plates and incubated for 24 h under standard culture conditions: temperature 37 °C, 5% CO2, 95% humidity. After 24 h, compounds from the MJ1–MJ20 group were added to individual wells at different concentrations (6.25 µM, 12.5 µM, 25 µM, 50 µM, 100 µM). The control consisted of cells grown only in medium without the addition of chemical compounds. After 24 h of incubation, cells were observed under a microscope (JuLI™ FL Live fluorescence microscope from NanoEntek, Martinsried, Germany), documenting morphological changes. Observations included visual assessments of confluence, cell shape, arrangement, and interaction with the substrate. The Supplementary Materials include a comprehensive collection of microscopic images showing the morphology of the tested cell lines (BEAS-2B, NHDF, HCT116, MCF7, SH-SY5Y, A549) after 24 h of incubation with compounds MJ1–MJ20. These images illustrate the effects of the compounds on cell shape, density, and adhesion. The images are provided as a separate PDF file for further reference. For apoptosis observations, the samples of BEAS-2B and HCT116 cells were additionally fixed with 4% paraformaldehyde (PFA) after 24 h of incubation with, or without selected compounds (Section 2.6) and DAPI stained for apoptotic bodies visualization (Fluoromount-G™ medium with DAPI dye; Thermo Fisher Scientific, Waltham, MA, USA). The samples were visualized using fluorescent microscopy AXIO IMAGER M1 by ZEISS, DAPI channel and 20x magnification. The percent of counted cells with apoptotic nucleus was defined in comparison to all visualized events.
(§7) BEAS-2B and HCT116 cells were seeded into culture plates at 5 × 10^3 cells per well using 0.5 mL of RPMI-1640 medium (for BEAS-2B) or DMEM (for HCT116). The plates were incubated for 24 h at 37 °C in an atmosphere containing 5% CO2. After incubation, the medium was removed and compounds MJ2, MJ8, MJ15, and MJ19 were added in the appropriate medium at a concentration of 100 μM. The plates were incubated for 24 h at 37 °C in an atmosphere containing 5% CO2. After incubation, the medium was removed, and 500 µL of 4% paraformaldehyde (PFA) was added to each well to fix the cells. Incubation continued for 10 min at room temperature. After removal of the PFA, the wells were rinsed with 500 µL of PBS (5 min of incubation) and then with distilled water. The cells were allowed to dry at room temperature. After drying, the cells were stained with DAPI. Observations were made using a fluorescence microscope AXIO IMAGER M1 by ZEISS at 20x magnification.

IL8 gene [1] = assay: RT-qPCR IL8 gene expression in BEAS-2B; format: cell-based; conditions: Homo sapiens, 24 h, reference gene RPL41, vs untreated control, read-out: Relative level of expression, IL8 gene
Method: (§8) Real-time polymerase chain reaction was performed for the reference gene RPL41 (ribosomal protein L41) and the tested genes: BCL2, AIFM2, MDM2, IL6 and IL8. […] The BEAS-2B line was selected for the experiment. The expression level of selected genes was measured after 24 h of incubation with the tested substances MJ1–MJ20 at a concentration of 100 μM (Table 3).
The RT-qPCR experiment was performed for the BEAS-2B cell line. In this experiment, the IL6 and IL8 genes were studied and RPL41 was used as a reference gene (Figure 17 and Figure 18).
as §2
(§9) BEAS-2B and HCT116 cells were seeded in 6-well plates at 2 × 10^5 cells per well and cultured in RPMI-1640 (BEAS-2B) or DMEM (HCT116) medium supplemented with 10% FBS and 1% penicillin/streptomycin at 37 °C, 5% CO2 and 95% humidity. After 24 h of incubation, the tested compounds were added at a concentration of 100 µM. After 24 h, the medium was removed from the cells, washed with PBS solution, 0.5 mL of trypsin was added per well and after 5 min it was neutralized with medium. The obtained cell suspension was centrifuged for 3 min at 2000 rpm, the supernatant was removed, and the obtained pellet was suspended in 400 µL of phenozol. Samples were frozen at −20 °C and stored until further experiment and RNA isolation.
(§10) Total RNA was isolated from cells using the A&A Biotechnology Total RNA Mini kit according to the manufacturer’s protocol. RNA quality and quantity were assessed using a NanoDrop 2000 spectrophotometer at 260/280 nm. Reverse transcription was performed using the protocol (EURx NG dART RT Kit) to obtain cDNA. After incubation, samples were placed in a freezer (−20 °C) and stored until further analysis.
(§11) The experiment was performed according to the protocol (Brilliant III Ultra Fast SYBR® Green QPCR Master Mix, Quick Reference Guide for the Bio-Rad CFX96 Real-Time PCR Detection System). RT-qPCR reaction was performed using specific primers for target genes (BCL2, AIFM2, MDM2, IL6, IL8). Gene expression was normalized to the expression of the reference gene RPL41. Reaction profiles and results were performed using Bio-Rad CFX Maestro 1.1 software from Bio-Rad. Analysis and calculations of the results obtained during RT-qPCR were performed using Microsoft Excel.
(§12) The results were analyzed using the R = 2^−ΔΔCt method, which allows for determining the relative level of gene expression (R) compared to the control. Each experiment was performed in three technical and biological replicates. RT-qPCR allowed for precise assessment of changes in the expression of genes related to the processes of apoptosis and inflammatory response under the influence of quinobenzothiazines, which allowed for identifying their potential mechanisms of action at the molecular level.

BCL2 gene = assay: RT-qPCR BCL2 gene expression in BEAS-2B; format: cell-based, Human; conditions: 24 h; for fold induction at 100 µM: Homo sapiens, reference gene RPL41, vs untreated control, read-out: Relative level of expression, BCL2 gene
Method: as §8
The RT-qPCR experiment was performed for the BEAS-2B cell line. In this experiment, the BCL2 gene was studied, and RPL41 was used as the reference gene (Figure 14).
as §2, §9, §10, §11, §12

MDM2 gene = assay: RT-qPCR MDM2 gene expression in HCT116; format: cell-based, Human; conditions: HCT116, 100 μM, 24 h, vs untreated control
Method: as §1, §2, §3, §4, §5

BEAS-2B cells = assay: DAPI staining for nuclear morphology and apoptosis, BEAS-2B; format: cell-based, Human; conditions: 100 μM, 24 h
Method: as §6, §7

IL8 gene [2] = assay: RT-qPCR IL8 gene expression in HCT116; format: cell-based, Human; conditions: HCT116, 100 μM, 24 h, vs untreated control
Method: as §1, §2, §3, §4, §5

| SMILES | Relative level of expression, IL6 gene (IL6 gene) | Apoptotic changes in cell nuclei (DAPI) (HCT116 cells) | fold induction at 100 µM (IL8 gene [1]) | fold induction at 100 µM (BCL2 gene) | Relative level of expression, MDM2 gene (MDM2 gene) | Apoptotic changes in cell nuclei (DAPI) (BEAS-2B cells) | BCL2 expression increase (BCL2 gene; 100 μM, compared to control) | Relative level of expression, IL8 gene (IL8 gene [2]) |
| --- | --- | --- | --- | --- | --- | --- | --- | --- |
| Clc1ccc2c(c1)Sc1cc3ccccc3nc1N2Cc1cn(CSc2ccccc2)nn1 [MJ15, 9-Chloro-6-((1-((phenylthio)methyl)-1H-1,2,3-triazol-4-yl)methyl)-quino[3,2-b]benzo[1,4]thiazine] | 5.56 | no significant apoptotic changes | 5 | 60.3 | 3.73 | no significant apoptotic changes |  |  |
| Fc1ccc(Cn2cc(CN3c4ccccc4Sc4cc5ccccc5nc43)nn2)cc1 [MJ2, 6-((1-(4-Fluorobenzyl)-1H-1,2,3-triazol-4-yl)methyl)-quino[3,2-b]benzo[1,4]thiazine] |  | no significant apoptotic changes | 0.4 | 6.5 |  | no significant apoptotic changes |  |  |
| CSc1ccc2c(c1)Sc1cc3ccccc3nc1N2Cc1cn(Cc2ccc(C#N)cc2)nn1 [MJ19, 4-((4-((9-Methylthioquino[3,2-b]benzo[1,4]thiazin-6-yl)methyl)-1H-1,2,3-triazol-1-yl)methyl)benzonitrile] |  | no significant apoptotic changes | 12.8 | 208 |  | no significant apoptotic changes | 208 fold |  |
| Fc1ccc2c(c1)Sc1cc3ccccc3nc1N2Cc1cn(Cc2ccc(Cl)cc2)nn1 [MJ8, 9-Fluoro-6-[(1-(4-chlorobenzyl)-1H-1,2,3-triazol-4-yl)methyl]-quino[3,2-b]benzo-[1,4]thiazine] | 6.55 | no significant apoptotic changes | 4 | 10.1 |  | no significant apoptotic changes |  | 6.95 |

— paper PMC12295927, “Design, Synthesis, and Testing of 1,2,3-Triazolo-Quinobenzothiazine Hybrids for Cytotoxic and Immunomodulatory Activity” (International Journal of Molecular Sciences, 2025)
